Experimental data reported in US9222093B2, “Two-way, portable riboswitch mediated gene expression control device” (THE UNIVERSITY OF HONG KONG, priority 2011, dated 2015).

Tests used:
CsrB locus = test: Autoaggregation and biofilm formation of ON-lacI strain harboring pLacIb-CsrB; assay type: cell-based, E. coli
Text: CsrB locus 706 has previously been cloned into a high copy vector (plasmid) 704. Two LacIbs 112 were inserted around the transcriptional start site to place expression of CsrB locus 706 under the control of ON-lacI riboswitch 302. Since one LacIb is after the transcriptional start site, the resulting CsrB differs slightly from the native one by the extra 21 nt-sequence (i.e. LacIb). […] This CsrB-carrying vector 704 was introduced into the ON-lacI strain, and autoaggregation and biofilm formation were examined.
To measure autoaggregation, overnight cultures were diluted 1:500 and incubated at 37° C., with shaking at 220 rpm, in liquid LB medium. When cells aggregated (visualized macroscopically by the clumping or ‘fluffing’ of cells in liquid cultures), 100 μl of each cell suspension was transferred to flat-bottom 96-well plates (Iwaki, Tokyo, Japan) and the images of the cell aggregates were captured by scanning. To better visualize the cell aggregates, 1 μl of crystal violet (0.1%) was added to each cell suspension immediately prior to image capture. Cellular autoaggregation was also examined microscopically. Cell suspensions were spread on a microscope slide, heat-fixed, stained with DAPI (4′6-diamidino-2-phenylindol), and imaged using a fluorescence stereomicroscope SZX12 (Olympus, Tokyo, Japan) with DAPI filter sets.
Biofilms were formed on polystyrene, flat-bottom 96-well microtiter plates (Iwaki, Tokyo, Japan). 200 μl of each cell suspension (10^5 cells/ml) was transferred into each well of a microtiter plate, and incubated for 24 h at 37° C. in a shaker at 75 rpm. Resulting biofilms were washed thrice with PBS and air dried. Then, biofilms were stained with […] of 0.4% aqueous crystal violet solution for 15 min. Next, biofilms were washed three times with sterile distilled water and immediately destained with 200 μl of 95% ethanol. After 30 min of destaining, 100 μl of destaining solution was transferred to a new well and measured with a microtiter plate reader (SpectraMAX®340 Tunable Microplate Reader; Molecular Devices Ltd.) at 595 nm.

LacI repressor protein = target: T1, LacI repressor protein (Escherichia coli, UniProt P03023); test: β-galactosidase assay of lacZ in cells carrying ON-lacI riboswitch and intact lacZ (IPTG arm of two-way control); assay type: cell-based, E. coli MG1655; conditions: medium containing 1600 μM theophylline
T1 construct: ON-lacI riboswitch 302 was incorporated into the chromosome upstream from intact lad gene (i.e., not fused with lacZ); endogenous in cells; host or cells: E. coli MG1655 derivative with ON-lacI riboswitch on the chromosome and intact lacZ locus
Text: (§1) The loxP-cat-loxP selectable cassette was inserted immediately after the stop codon of the lacZ gene on the MG1655 chromosome using recombineering methods. Next, the lacZ-loxP-cat-loxP cassette was PCR amplified and inserted (in frame) immediately prior to the stop codon of the target gene on the chromosome. The inserted lacZ fragment started from the 8th codon of the lacZ gene, and was co-transcribed and translated with the fused genes. The expression of gene-lacZ fusions was quantified using a β-galactosidase assay. Levels of β-galactosidasewere calculated using the following formula: units (U)=[…]
ON-lacI riboswitch 302 makes two-way gene regulation possible because the Lad repressor protein can be inactivated by isopropyl β-D-1-thiogalactopyranoside (IPTG). Thus, adding theophylline to the culture medium switches on lacI translation, and transcriptionally represses the target genes of LacI. In contrast. IPTG inactivates LacI by binding to the protein and derepresses transcription of the target genes.
Two-way control was verified by determining β-galactosidase levels of the cells carrying both ON-lacI riboswitch 302 and an intact lacZ gene locus. Theophylline and IPTG regulated lacZ in opposite directions in a concentration-dependent manner (graph 312, FIG. 3D). The effective concentration range of theophylline was 100-1600 μM. […]

rpoS gene locus = test: Acid survival of ON-lacI-rpoS strain (pH 2.0, 2 hours); assay type: cell-based, E. coli
Text: The ON-lacI-LacIbs cassette (2500 bp) from the genome of the strain carrying the ON riboswitch of lacI is amplified using […]. Cassette 602 is composed of the cat gene, the ON-lacI riboswitch, the lacI gene, and the lacI-lacZ intergenic region containing two LacIbs. The cat gene facilitates integration of this cassette immediately upstream of any target gene via recombineering. The riboswitch cassette was inserted upstream of the ribosomal binding site of rpoS gene locus […] (FIG. 6A). Next, the native lacI was deleted from this strain, generating a new mutant strain, ON-lacI-rpoS. This strain was used to test whether rpoS gene locus 606 could be controlled by the theophylline-responsive and LacI-repressible regulation cassette 602. Since rpoS is required for acid resistance, survival of strain […] under acidic conditions was assayed. Overnight cultures were treated with acid (pH 2.0) for 2 hours, and then serially diluted in neutral medium. After culturing overnight, colony forming units (CFU) of acid-treated and untreated cells were determined Acid survival (%) was calculated using the formula: Acid survival (%)=100×(CFU of treated/CFU of untreated).

wild type strain = test: Extracellular acetate assimilation, wild type strain; assay type: cell-based, E. coli; conditions: data not shown
Text: (§2) Bacterial cells switch from rapid growth during which they produce and excrete acetate (dissimilation) in the presence of abundant nutrients to slower growth supported by the import and utilization of the excreted acetate (assimilation) when glucose is exhausted. This physiological event is defined as an acetate switch, a survival response allowing cells to compete successfully during carbon starvation. It was previously reported that RpoS positively regulates consumption of acetate by activating the expression of acetyl-coenzyme A synthetase enzyme (Acs). However, the opposite results were obtained with ON-lacI-rpoS construction provided herein. […] When grown in the presence of theophylline (2 mM) and absence of IPTG, rpoS expression was shut off and accordingly, acetate assimilation was accelerated (FIG. 8A). […] The enhanced acetate assimilation was also observed with the newly constructed rpoS gene locus null mutant, shown in graph 804 (FIG. 8B). […] It is therefore apparent that RpoS represses acetate assimilation.

ON-lacI-rpoS cells = test: Extracellular acetate assimilation; assay type: cell-based, E. coli
Text: as §2

ON-lacI riboswitch = test: β-galactosidase assay of lacZ in cells carrying ON-lacI riboswitch and intact lacZ (theophylline arm of two-way control); assay type: cell-based, E. coli MG1655
Text: as §1
ON-lacI riboswitch 302 was incorporated into the chromosome upstream from intact lad gene (i.e., not fused with lacZ). The LacI protein represses expression of lacZ so that ON riboswitch 302 indirectly switches off lacZ in response to theophylline.
Two-way control was verified by determining β-galactosidase levels of the cells carrying both ON-lacI riboswitch 302 and an intact lacZ gene locus. Theophylline and IPTG regulated lacZ in opposite directions in a concentration-dependent manner (graph 312, FIG. 3D). The effective concentration range of theophylline was 100-1600 μM. […] When IPTG was added to the medium containing 1600 μM theophylline, lacZ was derepressed. The effective range of IPTG was 0.16-40 μM.

ON-crp strain = test: Motility of ON-crp strain on semisolid motility plates; assay type: cell-based, E. coli MG1655; conditions: theophylline ligand added; increased with higher theophylline concentrations
Method: The motility phenotype of the ON-crp strain was assayed to further confirm the effectiveness of the ON-riboswitch.

lacI-lacZ fusion = test: β-galactosidase assay of lacI-lacZ translational fusion; assay type: cell-based, E. coli MG1655; conditions: E. coli mutant containing ON-lacI riboswitch; with vs without theophylline
Text: as §1
To engineer an ON-riboswitch of the lacI gene, riboswitch cassette 302, cat-aptamer-linker-random sequence, was integrated upstream of the ribosomal binding site of lacI-lacZ usion 304 on the chromosome using standard recombineering methods (FIG. 3A).
The resulting mutant collection was grown on X-gal plates 306 in the absence of theophylline. Approximately 2000 colonies were screened for color. Two white clones were identified. […]

[1] = in the presence of theophylline

T1 sequence (P03023 whole entry, the tested form may be a part): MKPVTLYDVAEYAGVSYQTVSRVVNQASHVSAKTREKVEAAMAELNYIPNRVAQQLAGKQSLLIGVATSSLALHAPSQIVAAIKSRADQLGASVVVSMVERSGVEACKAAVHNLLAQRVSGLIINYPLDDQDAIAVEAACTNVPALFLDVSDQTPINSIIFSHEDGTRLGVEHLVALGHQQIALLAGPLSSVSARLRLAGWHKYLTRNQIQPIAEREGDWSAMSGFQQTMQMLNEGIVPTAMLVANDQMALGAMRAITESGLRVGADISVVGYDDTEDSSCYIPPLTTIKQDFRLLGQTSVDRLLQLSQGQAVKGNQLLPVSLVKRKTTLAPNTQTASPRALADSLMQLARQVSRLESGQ

## CC(C)S[C@@H]1O[C@H](CO)[C@H](O)[C@H](O)[C@H]1O [IPTG, isopropyl β-D-1-thiogalactopyranoside]
CsrB locus; IPTG added together with theophylline
  autoaggregation and biofilm formation: restored
LacI repressor protein
  effective range of IPTG (lacZ derepression): 0.16 to 40 µM
rpoS gene locus; 40 μM IPTG in medium containing 1600 μM theophylline
  acid survival: restored to the wild-type levels
Wild type strain
  effect on acetate assimilation in the wild type strain: Neither theophylline nor IPTG had any effect
ON-lacI-rpoS cells; IPTG 1 mM added to the theophylline medium
  acetate assimilation: restored to the wild-type levels

## Cn1c(=O)c2[nH]cnc2n(C)c1=O [theophylline]
CsrB locus; [1]
  autoaggregation: negative with respect to autoaggregation
  biofilm formation: low levels of biofilms
rpoS gene locus; 1600 μM theophylline
  acid survival: comparable to that of an rpoS null mutant
ON-lacI riboswitch; ON-lacI combined with LacIbs upstream from lacZ
  lacZ expression in the presence of theophylline: almost completely repressed
ON-lacI riboswitch; cells carrying ON-lacI riboswitch and intact lacZ, repression, saturation above the range
  effective concentration range of theophylline (lacZ regulation): 100 to 1600 µM
ON-lacI riboswitch; theophylline less than 100 μM
  lacZ regulation at theophylline concentrations less than 100 μM: little regulation
ON-crp strain
  motility: gained motility
Wild type strain
  effect on acetate assimilation in the wild type strain: Neither theophylline nor IPTG had any effect
lacI-lacZ fusion
  LacI levels in the presence of the ligand: one fold-increase
ON-lacI-rpoS cells; theophylline 2 mM, absence of IPTG
  acetate assimilation: accelerated
